Values quoted from earlier work, collected in US11510865B2, “Magnolia bark extract as a hydrophobic ligand for preferential removal of gram negative bacteria from the oral cavity” (WM. WRIGLEY JR. COMPANY, priority 2015, dated 2022).

Test system: S. mutans (ATCC 10449)
Settings: increased from 0.01; Jongsma et al. 2015

In the case of `Oc1cc(Cl)ccc1Oc1ccc(Cl)cc1Cl` [triclosan], the removal rate is given as 0.05.
